The results in this text go back to patent US6936604B2, “Bridged bicyclic amino acid-derived [1,4]benzodiazepine vasopressin receptor antagonists” (Ortho-McNeil Pharmaceutical, Inc., priority 2001, dated 2005).

Experiment [1] addresses T1, human V2 receptor (Homo sapiens, UniProt P30518).
T1 construct: expressed in transfected cells; host or cells: HEK-293
As to the kind of experiment: In vitro recombinant vasopressin receptor binding assay (3H-arginine vasopressin displacement), V2. To be noted: cloned human V2 receptor membranes, HEK-293 cells. As for the experimental part:
(§1) In Vitro Recombinant Vasopressin Receptor Binding Assay
(§2) Compounds were assessed for their ability to displace ^3H-arginine vasopressin from the human V1a or V2 receptor in HEK-293 cells. Assay buffer is 50 mM Tris-Cl, 5 mM MgCl2, 0.1% BSA (pH 7.5) containing 5 μg/mL of aprotinin, leupeptin, pepstatin, 50 μg/mL bacitracin, and 1 mM Pefabloc. ^3H-vasopressin is ^3H-arginine-8-vasopressin (68.5 Ci/mmol, final concentration in assay is 0.65-0.75 nM). Into wells of 96-well round bottom polypropylene plates were added buffer, test compound, membrane (containing cloned human V1a or V2 receptor) and ^3H-vasopressin. The reaction plates were allowed to sit at room temperature for one hour. The samples were filtered through Unifilter GF/C plates (presoaked in 0.3 polyethyleneimine). The plates were washed 5 times with cold physiological saline containing 0.05% Tween 20. After drying, the bottom of the filter plates were sealed and 0.025 mL of Microscint-20 was added to each filter. The top of the plate was sealed, and the plate was counted.

Experiment [2] concerns the target T2, human V1a receptor (Homo sapiens, UniProt P37288).
T2 construct: expressed in transfected cells; host or cells: HEK-293
As to the kind of experiment: In vitro recombinant vasopressin receptor binding assay (3H-arginine vasopressin displacement), V1a. The conditions noted are these: cloned human V1a receptor membranes, HEK-293 cells. As for the experimental part:
as §1, §2

The test system of experiment [3] is conscious hydrated male rats. As to the kind of experiment: Diuresis study, acute diuretic effect after oral administration. The conditions noted are these: 4 hours urine collection, mean±SE. The format is in vivo, Sprague Dawley rats. How it is done: The acute diuretic effect of compounds of the invention after oral administration was tested according to the procedure described herein.
Mature male Sprague Dawley rats, 200-300 gms, from Charles River Labs Inc. were housed one rat per cage, in a rodent room. Room temperature was maintained at […] and humidity at 30-70%. Room lighting was on a 12 hrs light/12 hrs dark cycle. Rats were fed laboratory rodent diet, #5001 (supplied from Purina Mills, St.Louis, Mo. via W. F. Fisher, Bound Brook, N.J.).
Four different concentrations of test compound were prepared. For each dose, compound was prepared as a uniform suspension in 0.5% methylcellulose vehicle using a water bath sonicator to ensure uniform suspension and dosed in a volume of 2 ml/kg.
All animals were fasted for 18 hours and weights were taken and recorded for each animal. Animals were dosed orally with drug via gavage needle. After oral dosing, animals were placed into metabolism racks for 4 hours. The urine was collected and the volume measured. Aliquots of 0.5 mL were stored at 4° C. for later analysis.
Each value represents the mean±SE. *Data has a p value of <0.05 versus vehicle using Dunnett's Multiple Comparison Test. **Data has a p value of <0.01 versus vehicle. ^aNumber of animals in parentheses represent the number of animals providing osmolality values (if different than the number of animals providing urine volume values).

Marks after values point to notes of the source that are not given here.

T2 sequence (P37288 whole entry): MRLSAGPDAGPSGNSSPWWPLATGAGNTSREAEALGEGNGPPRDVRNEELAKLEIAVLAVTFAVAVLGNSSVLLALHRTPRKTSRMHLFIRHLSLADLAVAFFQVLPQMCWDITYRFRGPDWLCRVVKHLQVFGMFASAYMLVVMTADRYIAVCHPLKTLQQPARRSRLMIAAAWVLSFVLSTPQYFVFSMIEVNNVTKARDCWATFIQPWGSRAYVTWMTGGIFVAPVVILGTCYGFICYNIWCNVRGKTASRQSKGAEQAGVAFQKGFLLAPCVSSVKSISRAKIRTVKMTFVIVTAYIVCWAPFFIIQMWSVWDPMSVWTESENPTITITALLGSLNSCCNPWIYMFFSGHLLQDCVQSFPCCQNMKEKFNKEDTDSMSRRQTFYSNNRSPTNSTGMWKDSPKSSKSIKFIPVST

Consider `O=C(Nc1ccc(C(=O)N2C[C@@H]3C4CCC(CC4)N3Cc3ccccc32)c(Cl)c1)c1ccccc1-c1ccccc1` [Compound 13, N-[4-[[(6aS)-6,6a,7,8,9,10-hexahydro-7,10-ethanopyrido[2,1-c][1,4]benzodiazepin-5(12H)-yl]carbonyl]-3-chlorophenyl]-[1,1′-biphenyl]-2-carboxamide], for which the half-inhibitory concentration (IC50) in experiment [1] was found to be 24 nM.
For the molecule `Cc1ccc(-c2ccccc2C(=O)Nc2ccc(C(=O)N3C[C@@H]4C5CCC(CC5)N4Cc4cc(Cl)ccc43)cc2)cc1` [Compound 16, N-[4-[[(6aS)-2-chloro-6,6a,7,8,9,10-hexahydro-7,10-ethanopyrido[2,1-c][1,4]benzodiazepin-5(12H)-yl]carbonyl]phenyl]-4′-methyl-[1,1′-biphenyl]-2-carboxamide], the half-inhibitory concentration (IC50) is 59 nM in experiment [2] and 72 nM in experiment [1].
Regarding `O=C(Nc1ccc(C(=O)N2C[C@H]3C4CCC(C4)N3Cc3ccccc32)c(Cl)c1)c1ccccc1-c1ccccc1` (stereo partly drawn) [Compound 5, N-[4-[[(6aR)-6,6a,7,8,9,10-hexahydro-7,10-methanopyrido[2,1-c][1,4]benzodiazepin-5(12H)-yl]carbonyl]-3-chlorophenyl]-[1,1′-biphenyl]-2-carboxamide], the IC50 in experiment [1] came to 15 nM. The “Urine Osmolality” value in experiment [3] (0.3 mg/Kg oral) is reported as 408 ± 37* mOsm/kg; in experiment [3] (1.0 mg/Kg oral), 303 ± 29* mOsm/kg; in experiment [3] (3.0 mg/Kg oral), 238 ± 18* mOsm/kg; in experiment [3] (10 mg/Kg oral), 172 ± 9* mOsm/kg. The “Urine Volume” value in experiment [3] (0.3 mg/Kg oral) is listed as 1.4 ± 0.1* mL; in experiment [3] (1.0 mg/Kg oral), 3.4 ± 0.4* mL; in experiment [3] (3.0 mg/Kg oral), 9.4 ± 1.1* mL; in experiment [3] (10 mg/Kg oral) it was 19.5 ± 1.4* mL.
Turning to `Cc1ccc(-c2ccccc2C(=O)Nc2ccc(C(=O)N3C[C@@H]4C5CCC(C5)N4Cc4ccccc43)c(Cl)c2)cc1` (stereo partly drawn) [Compound 7, N-[4-[[(6aS)-6,6a,7,8,9,10-hexahydro-7,10-methanopyrido[2,1-c][1,4]benzodiazepin-5(12H)-yl]carbonyl]-3-chlorophenyl]-4′-methyl-[1,1′-biphenyl]-2-carboxamide], the IC50 in experiment [2] is 35 nM; in experiment [1] it was 3 nM.
On the same counts, the results for `O=C(Nc1ccc(C(=O)N2C[C@@H]3C4CCC(C4)N3Cc3cc(Cl)ccc32)cc1)c1ccccc1-c1ccc(F)cc1` (stereo partly drawn) [Compound 9, N-[4-[[(6aS)-2-chloro-6,6a,7,8,9,10-hexahydro-7,10-methanopyrido[2,1-c][1,4]benzodiazepin-5(12H)-yl]carbonyl]phenyl]-4′-fluoro-[1,1′-biphenyl]-2-carboxamide] are 68 nM and 26 nM.
With `Cc1ccc(-c2ccccc2C(=O)Nc2ccc(C(=O)N3C[C@@H]4C5CCC(C5)N4Cc4cc(Cl)ccc43)cc2)cc1` (stereo partly drawn) [Compound 6, N-[4-[[(6aS)-2-chloro-6,6a,7,8,9,10-hexahydro-7,10-methanopyrido[2,1-c][1,4]benzodiazepin-5(12H)-yl]carbonyl]phenyl]-4′-methyl-[1,1′-biphenyl]-2-carboxamide], the values for the IC50 in experiment [2] and in experiment [1] were 24 nM and 5 nM, respectively. In addition, the “Urine Osmolality” value was 387 ± 15 mOsm/kg in experiment [3] (1.0 mg/Kg oral), 226 ± 9** mOsm/kg in experiment [3] (3.0 mg/Kg oral) and 159 ± 9** mOsm/kg in experiment [3] (10 mg/Kg oral). The results for the “Urine Volume” value in experiment [3] (1.0 mg/Kg oral), in experiment [3] (3.0 mg/Kg oral) and in experiment [3] (10 mg/Kg oral) were 2.9 ± 0.2 mL, 5.8 ± 0.5** mL and 17.8 ± 1.3** mL, respectively.
With `O=C(Nc1ccc(C(=O)N2C[C@@H]3C4CCC(C4)N3Cc3cc(Cl)ccc32)cc1)c1ccccc1F` (stereo partly drawn) [Compound 10, N-[4-[[(6aS)-2-chloro-6,6a,7,8,9,10-hexahydro-7,10-methanopyrido[2,1-c][1,4]benzodiazepin-5(12H)-yl]carbonyl]phenyl]-2-fluoro-benzamide], the IC50 in experiment [2] came to 5 nM; in experiment [1] it was 10 nM.
For `O=C(Nc1ccc(C(=O)N2C[C@@H]3C4CCC(C4)N3Cc3ccccc32)c(Cl)c1)c1ccccc1-c1ccccc1` (stereo partly drawn) [Compound 4, N-[4-[[(6aS)-6,6a,7,8,9,10-hexahydro-7,10-methanopyrido[2,1-c][1,4]benzodiazepin-5(12H)-yl]carbonyl]-3-chlorophenyl]-[1,1′-biphenyl]-2-carboxamide], the IC50 in experiment [2] was 24 nM; in experiment [1], 4 nM. Besides, the “Urine Osmolality” value was 444 ± 79* mOsm/kg in experiment [3] (0.3 mg/Kg oral), 299 ± 34* mOsm/kg in experiment [3] (1.0 mg/Kg oral), 180 ± 9* mOsm/kg in experiment [3] (3.0 mg/Kg oral) and 138 ± 11* mOsm/kg in experiment [3] (10 mg/Kg oral). For the same molecule, the “Urine Volume” value in experiment [3] (0.3 mg/Kg oral) was 2.5 ± 0.3 mL; in experiment [3] (1.0 mg/Kg oral), 6.0 ± 0.7* mL; in experiment [3] (3.0 mg/Kg oral), 15.1 ± 1.4* mL; in experiment [3] (10 mg/Kg oral) it was 29.9 ± 2.0* mL.
Turning to “N-[4-[[(6aS)-2-chloro-6,6a,7,8,9,10-hexahydro-7,10-methanopyrido[2,1-c][1,4]benzodiazepin-5(12H)-yl]carbonyl]-3-chlorophenyl]-2-(trifluoromethyl)-benzamide [Compound 12]”, the IC50 in experiment [2] was 10 nM; in experiment [1], 15 nM.
Consider `O=C(Nc1ccc(C(=O)N2CC3C4CCC(CC4)N3Cc3ccccc32)c(Cl)c1)c1ccccc1-c1ccccc1` (racemic) [Compound 2, N-[4-[(6,6a,7,8,9,10-hexahydro-7,10-ethanopyrido[2,1-c][1,4]benzodiazepin-5(12H)-yl)carbonyl]-3-chlorophenyl]-[1,1′-biphenyl]-2-carboxamide], for which the IC50 in experiment [1] is 4 nM.
For `O=C(Nc1ccc(C(=O)N2C[C@@H]3C4CCC(C4)N3Cc3cc(Cl)ccc32)cc1)c1ccccc1Cl` (stereo partly drawn) [Compound 11, N-[4-[[(6aS)-2-chloro-6,6a,7,8,9,10-hexahydro-7,10-methanopyrido[2,1-c][1,4]benzodiazepin-5(12H)-yl]carbonyl]phenyl]-2-chloro-benzamide], the IC50 in experiment [2] was 4 nM; in experiment [1], 7 nM.
Turning to `Cc1ccc(F)cc1C(=O)Nc1ccc(C(=O)N2C[C@@H]3C4CCC(CC4)N3Cc3ccccc32)c(Cl)c1` [Compound 14, N-[4-[[(6aS)-6,6a,7,8,9,10-hexahydro-7,10-ethanopyrido[2,1-c][1,4]benzodiazepin-5(12H)-yl]carbonyl]-3-chlorophenyl]-5-fluoro-2-methyl-benzamide], in experiment [1], the IC50 came to 19 nM.
With `O=C(Nc1ccc(C(=O)N2C[C@@H]3C4CCC(CC4)N3Cc3cc(Cl)ccc32)cc1)c1ccccc1Cl` [Compound 15, N-[4-[[(6aS)-2-chloro-6,6a,7,8,9,10-hexahydro-7,10-ethanopyrido[2,1-c][1,4]benzodiazepin-5(12H)-yl]carbonyl]phenyl]-2-chloro-benzamide], the results for the IC50 in experiment [2] and in experiment [1] were 13 nM and 35 nM, respectively.
Regarding `O=C(Nc1ccc(C(=O)N2C[C@@H]3C4CCC(C4)N3Cc3ccccc32)c(Cl)c1)c1ccccc1-c1ccccc1` (mixture of isomers) [Compound 3, N-[4-[[(6aS)-6,6a,7,8,9,10-hexahydro-7,10-methanopyrido[2,1-c][1,4]benzodiazepin-5(12H)-yl]carbonyl]-3-chlorophenyl]-[1,1′-biphenyl]-2-carboxamide], the IC50 in experiment [1] is 15 nM.
